The results in this text go back to ChEMBL document CHEMBL1137469, “(3R,4S)-4-(2,4,5-Trifluorophenyl)-pyrrolidin-3-ylamine inhibitors of dipeptidyl peptidase IV: synthesis, in vitro, in vivo, and X-ray crystallographic characterization” (Bioorg Med Chem Lett, 2007).

One series deals with Dipeptidyl peptidase 4 (Homo sapiens, UniProt P27487).
In the next series the target is Dipeptidyl peptidase 2 (Homo sapiens, UniProt Q9UHL4). The experiment in a line: Inhibition of human recombinant DPP2.
Series [1] is described as follows: Half life in iv dosed rat plasma. Format: ADME, organism-based.
The nature of series [2]: Volume of distribution at steady state in rat plasma. Format: ADME, organism-based. The note with it: read-out: Vdss.
A short description of series [3]: Percent of unbound ligand in dog plasma. Format: ADME, cell-free, Canis lupus familiaris.
The nature of series [4]: Plasma clearance in rat. In kind it is ADME, organism-based.
Series [5] in a line: Half life in po dosed rat plasma. Format: ADME, organism-based.
Series [6] can be described thus: Volume of distribution at steady state in dog plasma. In kind it is ADME, organism-based, Canis lupus familiaris. The note with it: read-out: Vdss.
The target of a further series is T1, Dipeptidyl peptidase 3 (Homo sapiens, UniProt Q9NY33).
T1 sequence (Q9NY33 whole entry): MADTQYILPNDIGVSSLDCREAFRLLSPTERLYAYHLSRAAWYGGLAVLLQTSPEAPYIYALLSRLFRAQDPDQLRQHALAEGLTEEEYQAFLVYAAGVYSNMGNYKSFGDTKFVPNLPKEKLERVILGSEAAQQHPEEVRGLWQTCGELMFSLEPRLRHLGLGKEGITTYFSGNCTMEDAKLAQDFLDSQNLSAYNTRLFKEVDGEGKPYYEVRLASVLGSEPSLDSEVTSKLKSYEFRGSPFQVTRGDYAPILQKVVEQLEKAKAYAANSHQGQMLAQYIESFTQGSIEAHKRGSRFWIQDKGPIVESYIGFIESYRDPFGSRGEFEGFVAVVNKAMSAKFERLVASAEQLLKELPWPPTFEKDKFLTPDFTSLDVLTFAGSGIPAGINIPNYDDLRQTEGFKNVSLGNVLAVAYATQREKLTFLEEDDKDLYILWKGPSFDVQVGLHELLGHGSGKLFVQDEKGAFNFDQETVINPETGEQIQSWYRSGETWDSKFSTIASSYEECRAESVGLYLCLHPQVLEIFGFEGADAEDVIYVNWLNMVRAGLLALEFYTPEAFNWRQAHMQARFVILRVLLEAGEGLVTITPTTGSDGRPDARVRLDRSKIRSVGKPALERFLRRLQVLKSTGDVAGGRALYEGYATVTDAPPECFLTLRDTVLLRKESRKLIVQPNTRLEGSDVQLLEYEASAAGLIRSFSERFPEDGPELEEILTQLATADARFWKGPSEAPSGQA
The experiment in a line: Inhibition of DPP3.

Series [7] in a line: Plasma clearance in dog. In kind it is ADME, organism-based, Canis lupus familiaris.
Series [8] is described as follows: Oral bioavailability in rat plasma. In kind it is ADME, organism-based.
Series [9] in a line: Half life in iv dosed dog plasma. In kind it is ADME, organism-based, Canis lupus familiaris.

Sequence of Dipeptidyl peptidase 4 (P27487 whole entry): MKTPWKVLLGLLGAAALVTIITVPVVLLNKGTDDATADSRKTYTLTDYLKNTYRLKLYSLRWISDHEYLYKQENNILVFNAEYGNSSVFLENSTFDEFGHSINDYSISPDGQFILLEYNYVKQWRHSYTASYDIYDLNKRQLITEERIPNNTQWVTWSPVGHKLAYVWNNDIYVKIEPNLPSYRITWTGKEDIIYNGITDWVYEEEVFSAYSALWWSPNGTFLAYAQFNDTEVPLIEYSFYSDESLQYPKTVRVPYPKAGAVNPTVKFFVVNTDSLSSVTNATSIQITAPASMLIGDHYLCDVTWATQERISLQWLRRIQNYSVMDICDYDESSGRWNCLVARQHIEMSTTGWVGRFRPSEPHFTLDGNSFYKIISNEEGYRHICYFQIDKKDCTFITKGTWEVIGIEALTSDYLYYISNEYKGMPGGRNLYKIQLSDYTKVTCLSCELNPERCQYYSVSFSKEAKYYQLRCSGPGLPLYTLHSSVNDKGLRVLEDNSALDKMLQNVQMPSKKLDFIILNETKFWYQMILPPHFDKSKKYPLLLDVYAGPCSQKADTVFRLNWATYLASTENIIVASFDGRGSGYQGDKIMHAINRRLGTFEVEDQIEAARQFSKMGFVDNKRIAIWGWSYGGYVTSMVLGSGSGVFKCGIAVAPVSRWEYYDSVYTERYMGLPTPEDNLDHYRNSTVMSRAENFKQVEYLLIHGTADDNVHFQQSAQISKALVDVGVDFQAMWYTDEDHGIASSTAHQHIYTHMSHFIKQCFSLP

For `N[C@H]1CN(c2cnc3ccccc3n2)C[C@@H]1c1ccccc1`, at Dipeptidyl peptidase 4, the IC50 was greater than 3 µM.
With `N[C@H]1CN(c2ccc3ccccc3n2)C[C@@H]1c1ccccc1`, the half-maximal inhibitory concentration (IC50) against Dipeptidyl peptidase 4 is greater than 3 µM.
Molecule `N#Cc1cccnc1N1C[C@H](c2ccccc2)[C@@H](N)C1` displayed a concentration for half-maximal inhibition (IC50) on Dipeptidyl peptidase 4 greater than 3 µM.
The molecule `N[C@H]1CN(c2cc(-c3ccccc3Cl)ncn2)C[C@@H]1c1ccccc1` yielded an IC50 at Dipeptidyl peptidase 4 greater than 3 µM.
On to `N[C@H]1CN(c2cc(-c3ccccc3)ncn2)C[C@@H]1c1cc(F)c(F)cc1F`, for which, at Dipeptidyl peptidase 2, the half-maximal inhibitory concentration (IC50) was 18 µM.
As to `N[C@H]1CN(c2cc(-c3cccc(F)c3)ncn2)C[C@@H]1c1cc(F)c(F)cc1F`, at Dipeptidyl peptidase 2, the half-maximal inhibitory concentration (IC50) was 15 µM.
In the case of `COc1ccc(-c2cc(N3C[C@H](c4cc(F)c(F)cc4F)[C@@H](N)C3)ncn2)cn1`, the half-life was 2.8 h in series [1], 3.3 h in series [5] and 5.1 h in series [9]. For the same molecule, the Vd in series [2] stood at 0.67 L/kg; in [6], 1.9 L/kg. Also, the fraction unbound in series [3] is 0.17. In addition, the results for the clearance in [4] and in [7] were 4.4 mL/min/kg and 4.8 mL/min/kg, respectively. For the same molecule, the IC50 is 19 µM at Dipeptidyl peptidase 2 and greater than 30 µM against Dipeptidyl peptidase 3. Also, the bioavailability in series [8] came out at 57%.
Molecule `Cn1cnc2c(N3C[C@H](c4ccccc4)[C@@H](N)C3)ncnc21` gave a concentration for half-maximal inhibition (IC50) on Dipeptidyl peptidase 4 greater than 3 µM.
With `N[C@H]1CN(c2cc(-c3ccc(O)cc3)ncn2)C[C@@H]1c1ccccc1`, the IC50 at Dipeptidyl peptidase 4 was greater than 3 µM.
In turn, `N[C@H]1CN(c2cc(Cl)nc(-c3ccccc3)n2)C[C@@H]1c1ccccc1` gave an IC50 on Dipeptidyl peptidase 4 greater than 3 µM.
Same read-out and setting: the result for `N[C@H]1CN(c2cc(-c3ccc(Cl)cc3)ncn2)C[C@@H]1c1ccccc1` reads greater than 3 µM; that for `CC(=O)c1ccc(N2C[C@H](c3ccccc3)[C@@H](N)C2)nc1`, greater than 3 µM.
The same measure, in the same setting: as for `CC(C)c1ccc([C@@H]2CN(c3nc4c(cc3F)c(=O)c(C(=O)O)cn4C3CC3)C[C@@H]2N)cc1` (relative stereo), the figure is greater than 3 µM; as for `COC(=O)c1ccc([C@@H]2CN(c3nc4c(cc3F)c(=O)c(C(=O)O)cn4C3CC3)C[C@@H]2N)cc1` (relative stereo), greater than 3 µM; as for `COc1ccc([C@@H]2CN(c3nc4c(cc3F)c(=O)c(C(=O)O)cn4C3CC3)C[C@@H]2N)cc1` (relative stereo), greater than 3 µM.
For `CN(C)c1ccc([C@@H]2CN(c3nc4c(cc3F)c(=O)c(C(=O)O)cn4C3CC3)C[C@@H]2N)cc1` (relative stereo), on Dipeptidyl peptidase 4, the 50% inhibitory concentration (IC50) is greater than 3 µM.
Same read-out and setting: as for `N[C@H]1CN(c2nc3c(cc2F)c(=O)c(C(=O)O)cn3C2CC2)C[C@H]1c1ccc(O)cc1` (relative stereo), the figure is greater than 3 µM; as for `Nc1ccc([C@@H]2CN(c3nc4c(cc3F)c(=O)c(C(=O)O)cn4C3CC3)C[C@@H]2N)cc1` (relative stereo), greater than 3 µM.
